According to patent US20250147039A1, “Compounds for complexation of rare earth elements and/or s-, p-, d- block metals, their coordination compounds, peptide conjugates, method of their preparation and use thereof” (USTAV ORGANICKE CHEMIE A BIOCHEMIE AV CR V.V.I., priority 2021, published 2025):

Experiments:
[1] = Formation of 1,5-cz-[M(Lig)] from Lig and M^III ions (metal dependent click-zip) (Charts 4, 5); type: physicochemical; details: MOPS/NaOH buffer pH 7.0, TD728, TD827 in 50% i-PrOH; for conversion to 1,5-cz-[M(Lig)], Y^III: TD714 sum of two diastereoisomers
[2] = Formation of 1,5-cz-[Ln(Lig)] from Lig and Ln^III ions (metal dependent click-zip), MOPS/NaOH buffer pH 7.0, analytical HPLC (Charts 1, 2); details: MOPS/NaOH buffer pH 7.0

Row | SMILES | conversion to 1,5-cz-[M(Lig)], Sc^III ([1]; 1 week at 80° C.) | conversion to 1,5-cz-[M(Lig)], Y^III ([1]; 1 week at 80° C.) | conversion to 1,5-cz-[M(Lig)], Sc^III ([1]; 1 hour at 80° C.) | conversion to 1,5-cz-[M(Lig)], Y^III ([1]; 1 hour at 80° C.) | conversion to 1,5-cz-[Ln(Lig)], Ce^III ([2]; after 1 hour at 80° C.) | conversion to 1,5-cz-[Ln(Lig)], Dy^III ([2]; after 1 week at 80° C.) | conversion to 1,5-cz-[Ln(Lig)], Dy^III ([2]; after 1 hour at 80° C.) | conversion to 1,5-cz-[Ln(Lig)], Er^III ([2]; after 1 week at 80° C.) | conversion to 1,5-cz-[Ln(Lig)], Er^III ([2]; after 1 hour at 80° C.) | conversion to 1,5-cz-[Ln(Lig)], Eu^III ([2]; after 1 week at 80° C.) | conversion to 1,5-cz-[Ln(Lig)], Eu^III ([2]; after 1 hour at 80° C.) | conversion to 1,5-cz-[Ln(Lig)], Gd^III ([2]; after 1 week at 80° C.) | conversion to 1,5-cz-[Ln(Lig)], Gd^III ([2]; after 1 hour at 80° C.) | conversion to 1,5-cz-[Ln(Lig)], Ho^III ([2]; after 1 week at 80° C.) | conversion to 1,5-cz-[Ln(Lig)], Ho^III ([2]; after 1 hour at 80° C.) | conversion to 1,5-cz-[Ln(Lig)], La^III ([2]; after 1 hour at 80° C.) | conversion to 1,5-cz-[Ln(Lig)], Lu^III ([2]; after 1 week at 80° C.) | conversion to 1,5-cz-[Ln(Lig)], Lu^III ([2]; after 1 hour at 80° C.) | conversion to 1,5-cz-[Ln(Lig)], Nd^III ([2]; after 1 hour at 80° C.) | conversion to 1,5-cz-[Ln(Lig)], Pr^III ([2]; after 1 hour at 80° C.) | other results
1 | C#Cc1cccc(CN2CCN(CC(=O)O)CCN(Cc3cccc(CN=[N+]=[N-])n3)CCN(CC(=O)O)CC2)n1 [TD556] | 23% | 95% | 2% | 22% | 1% | 94% | 16% | 95% | 37% | 92% | 4% | 91% | 5% | 95% | 24% | 1% | 95% | 71% | 2% | 1% | conversion to 1,5-cz-[Ln(Lig)], Ce^III ([2]; after 1 week at 80° C.): 25%; conversion to 1,5-cz-[Ln(Lig)], La^III ([2]; after 1 week at 80° C.): 50%; conversion to 1,5-cz-[Ln(Lig)], Nd^III ([2]; after 1 week at 80° C.): 81%; conversion to 1,5-cz-[Ln(Lig)], Pr^III ([2]; after 1 week at 80° C.): 64%; conversion to 1,5-cz-[Ln(Lig)], Sm^III ([2]; after 1 week at 80° C.): 92%; conversion to 1,5-cz-[Ln(Lig)], Sm^III ([2]; after 1 hour at 80° C.): 3%; conversion to 1,5-cz-[Ln(Lig)], Tb^III ([2]; after 1 week at 80° C.): 95%; conversion to 1,5-cz-[Ln(Lig)], Tb^III ([2]; after 1 hour at 80° C.): 11%; conversion to 1,5-cz-[Ln(Lig)], Tm^III ([2]; after 1 week at 80° C.): 95%; conversion to 1,5-cz-[Ln(Lig)], Tm^III ([2]; after 1 hour at 80° C.): 52%; conversion to 1,5-cz-[Ln(Lig)], Yb^III ([2]; after 1 week at 80° C.): 95%; conversion to 1,5-cz-[Ln(Lig)], Yb^III ([2]; after 1 hour at 80° C.): 64%
2 | C#CCN(CC#C)CCN1CCN(CC(=O)O)CCN(Cc2cc(-c3ccccc3)cc(CN=[N+]=[N-])n2)CCN(CC(=O)O)CC1 [TD669] | 0% | 12% | 0% | 0% | 0% | 20% | 0% | 12% | 0% | 25% | 0% | 24% | 0% | 14% | 0% | 0% | 7% | 0% | 0% | 0% | conversion to 1,5-cz-[Ln(Lig)], Sm^III ([2]; after 1 week at 80° C.): 33%; conversion to 1,5-cz-[Ln(Lig)], Sm^III ([2]; after 1 hour at 80° C.): 0%; conversion to 1,5-cz-[Ln(Lig)], Tb^III ([2]; after 1 hour at 80° C.): 0%; conversion to 1,5-cz-[Ln(Lig)], Tm^III ([2]; after 1 week at 80° C.): 11%; conversion to 1,5-cz-[Ln(Lig)], Tm^III ([2]; after 1 hour at 80° C.): 0%; conversion to 1,5-cz-[Ln(Lig)], Yb^III ([2]; after 1 week at 80° C.): 10%; conversion to 1,5-cz-[Ln(Lig)], Yb^III ([2]; after 1 hour at 80° C.): 0%
3 | [N-]=[N+]=NCc1cc(-c2ccccc2)cc(CN2CCN(CC(=O)O)CCN(Cc3cccc(C#CCN)n3)CCN(CC(=O)O)CC2)n1 [TD722] | 14% | 71% | 3% | 9% | 0% | 65% | 5% | 91% | 17% | 14% | 1% | 19% | 2% | 82% | 9% | 0% | 96% | 49% | 0% | 0% | conversion to 1,5-cz-[Ln(Lig)], Ce^III ([2]; after 1 week at 80° C.): 1%; conversion to 1,5-cz-[Ln(Lig)], La^III ([2]; after 1 week at 80° C.): 2%; conversion to 1,5-cz-[Ln(Lig)], Nd^III ([2]; after 1 week at 80° C.): 4%; conversion to 1,5-cz-[Ln(Lig)], Pr^III ([2]; after 1 week at 80° C.): 3%; conversion to 1,5-cz-[Ln(Lig)], Sm^III ([2]; after 1 week at 80° C.): 9%; conversion to 1,5-cz-[Ln(Lig)], Sm^III ([2]; after 1 hour at 80° C.): 1%; conversion to 1,5-cz-[Ln(Lig)], Tb^III ([2]; after 1 week at 80° C.): 54%; conversion to 1,5-cz-[Ln(Lig)], Tb^III ([2]; after 1 hour at 80° C.): 3%; conversion to 1,5-cz-[Ln(Lig)], Tm^III ([2]; after 1 week at 80° C.): 96%; conversion to 1,5-cz-[Ln(Lig)], Tm^III ([2]; after 1 hour at 80° C.): 27%; conversion to 1,5-cz-[Ln(Lig)], Yb^III ([2]; after 1 week at 80° C.): 96%; conversion to 1,5-cz-[Ln(Lig)], Yb^III ([2]; after 1 hour at 80° C.): 38%
4 | C#Cc1cccc(CN2CCN(CC(=O)O)CCN(Cc3cc(-c4ccc(C(=O)O)cc4)cc(CN=[N+]=[N-])n3)CCN(CC(=O)O)CC2)n1 [TD742] | 52% | 94% | 7% | 22% | 1% | 93% | 15% | 94% | 34% | 89% | 4% | 91% | 5% | 94% | 22% | 1% | 94% | 66% | 1% | 1% | conversion to 1,5-cz-[Ln(Lig)], Ce^III ([2]; after 1 week at 80° C.): 43%; conversion to 1,5-cz-[Ln(Lig)], La^III ([2]; after 1 week at 80° C.): 40%; conversion to 1,5-cz-[Ln(Lig)], Nd^III ([2]; after 1 week at 80° C.): 76%; conversion to 1,5-cz-[Ln(Lig)], Pr^III ([2]; after 1 week at 80° C.): 66%; conversion to 1,5-cz-[Ln(Lig)], Sm^III ([2]; after 1 week at 80° C.): 87%; conversion to 1,5-cz-[Ln(Lig)], Sm^III ([2]; after 1 hour at 80° C.): 3%; conversion to 1,5-cz-[Ln(Lig)], Tb^III ([2]; after 1 week at 80° C.): 93%; conversion to 1,5-cz-[Ln(Lig)], Tb^III ([2]; after 1 hour at 80° C.): 9%; conversion to 1,5-cz-[Ln(Lig)], Tm^III ([2]; after 1 week at 80° C.): 94%; conversion to 1,5-cz-[Ln(Lig)], Tm^III ([2]; after 1 hour at 80° C.): 48%; conversion to 1,5-cz-[Ln(Lig)], Yb^III ([2]; after 1 week at 80° C.): 93%; conversion to 1,5-cz-[Ln(Lig)], Yb^III ([2]; after 1 hour at 80° C.): 55%
5 | C#Cc1cccc(CN2CCN(CC(=O)NCC(=O)O)CCN(Cc3cc(-c4ccccc4)cc(CN=[N+]=[N-])n3)CCN(CC(=O)NCC(=O)O)CC2)n1 [TD778] | 0% | 27% | 0% | 17% | 20% | 18% | 13% | 32% | 25% | 3% | 4% | 11% | 4% | 30% | 17% | 24% | 34% | 26% | 9% | 13% | conversion to 1,5-cz-[Ln(Lig)], Ce^III ([2]; after 1 week at 80° C.): 0%; conversion to 1,5-cz-[Ln(Lig)], La^III ([2]; after 1 week at 80° C.): 0%; conversion to 1,5-cz-[Ln(Lig)], Nd^III ([2]; after 1 week at 80° C.): 0%; conversion to 1,5-cz-[Ln(Lig)], Pr^III ([2]; after 1 week at 80° C.): 0%; conversion to 1,5-cz-[Ln(Lig)], Sm^III ([2]; after 1 week at 80° C.): 1%; conversion to 1,5-cz-[Ln(Lig)], Sm^III ([2]; after 1 hour at 80° C.): 4%; conversion to 1,5-cz-[Ln(Lig)], Tb^III ([2]; after 1 week at 80° C.): 15%; conversion to 1,5-cz-[Ln(Lig)], Tb^III ([2]; after 1 hour at 80° C.): 9%; conversion to 1,5-cz-[Ln(Lig)], Tm^III ([2]; after 1 week at 80° C.): 31%; conversion to 1,5-cz-[Ln(Lig)], Tm^III ([2]; after 1 hour at 80° C.): 31%; conversion to 1,5-cz-[Ln(Lig)], Yb^III ([2]; after 1 week at 80° C.): 27%; conversion to 1,5-cz-[Ln(Lig)], Yb^III ([2]; after 1 hour at 80° C.): 30%
